Experimental data taken from US11691972B2, “Compounds for targeted degradation of BRD9” (C4 Therapeutics, Inc., priority 2020, dated 2023).

How the values were obtained:
E3 = E3 (Homo sapiens, UniProt Q96SW2); assay: FP-E3 binding (Kd)
IKZF1 = IKZF1 (Homo sapiens, UniProt Q13422); assay: IKZF1 degradation; assay type: cell-based; details: one value given for IKZF1/SALL4/GSPT1
GSPT1 = GSPT1 (Homo sapiens, UniProt P15170); assay: GSPT1 degradation; assay type: cell-based; details: one value given for IKZF1/SALL4/GSPT1
Sequence of GSPT1 (P15170 whole entry, species assumed): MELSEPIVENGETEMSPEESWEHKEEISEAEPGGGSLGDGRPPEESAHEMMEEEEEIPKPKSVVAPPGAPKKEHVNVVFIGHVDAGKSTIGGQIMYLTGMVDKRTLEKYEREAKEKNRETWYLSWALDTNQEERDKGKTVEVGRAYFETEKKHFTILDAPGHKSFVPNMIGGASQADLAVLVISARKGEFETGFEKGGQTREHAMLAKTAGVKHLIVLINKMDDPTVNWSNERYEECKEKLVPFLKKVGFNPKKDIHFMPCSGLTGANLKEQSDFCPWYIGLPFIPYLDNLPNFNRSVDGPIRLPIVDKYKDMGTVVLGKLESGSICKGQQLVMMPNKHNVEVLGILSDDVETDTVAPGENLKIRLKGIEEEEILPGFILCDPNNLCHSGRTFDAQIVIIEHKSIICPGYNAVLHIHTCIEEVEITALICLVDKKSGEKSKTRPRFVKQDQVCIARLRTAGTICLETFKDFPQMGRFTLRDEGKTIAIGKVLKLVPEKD

CYP 1A2 = CYP 1A2 (Homo sapiens, UniProt P05177); assay: CYP inhibition 1A2; assay type: in vitro ADME
Sequence of CYP 1A2 (P05177 whole entry): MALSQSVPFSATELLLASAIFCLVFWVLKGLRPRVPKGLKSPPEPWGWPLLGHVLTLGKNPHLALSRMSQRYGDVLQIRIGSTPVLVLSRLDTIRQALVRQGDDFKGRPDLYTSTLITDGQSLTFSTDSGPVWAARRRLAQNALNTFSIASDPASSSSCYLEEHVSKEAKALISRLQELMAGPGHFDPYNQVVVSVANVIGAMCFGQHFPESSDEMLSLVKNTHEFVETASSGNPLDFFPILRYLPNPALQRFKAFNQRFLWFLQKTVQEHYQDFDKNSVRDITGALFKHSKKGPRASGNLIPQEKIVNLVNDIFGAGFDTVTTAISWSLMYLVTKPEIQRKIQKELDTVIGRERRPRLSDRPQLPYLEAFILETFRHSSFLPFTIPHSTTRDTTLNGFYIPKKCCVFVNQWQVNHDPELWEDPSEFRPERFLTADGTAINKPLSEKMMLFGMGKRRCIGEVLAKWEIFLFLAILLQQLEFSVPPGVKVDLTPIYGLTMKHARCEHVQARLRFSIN

CYP 2C19 = CYP 2C19 (Homo sapiens, UniProt P33261); assay: CYP inhibition 2C19; assay type: in vitro ADME
Sequence of CYP 2C19 (P33261 whole entry): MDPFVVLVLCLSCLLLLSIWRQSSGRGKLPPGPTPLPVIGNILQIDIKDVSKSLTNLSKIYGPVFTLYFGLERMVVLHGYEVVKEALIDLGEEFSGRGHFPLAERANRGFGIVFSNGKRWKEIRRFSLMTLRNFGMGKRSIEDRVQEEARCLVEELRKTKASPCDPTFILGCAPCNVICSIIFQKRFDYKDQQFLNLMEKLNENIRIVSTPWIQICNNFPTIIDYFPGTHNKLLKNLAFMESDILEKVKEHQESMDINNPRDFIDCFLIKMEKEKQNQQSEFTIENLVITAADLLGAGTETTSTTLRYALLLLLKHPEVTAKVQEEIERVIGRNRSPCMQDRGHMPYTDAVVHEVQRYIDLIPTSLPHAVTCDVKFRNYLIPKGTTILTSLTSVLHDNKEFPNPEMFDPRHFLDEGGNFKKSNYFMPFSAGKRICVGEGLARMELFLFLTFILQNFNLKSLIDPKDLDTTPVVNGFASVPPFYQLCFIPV

CYP 3A4 = CYP 3A4 (Homo sapiens, UniProt P08684); assay: CYP inhibition 3A4; assay type: in vitro ADME
Sequence of CYP 3A4 (P08684 whole entry): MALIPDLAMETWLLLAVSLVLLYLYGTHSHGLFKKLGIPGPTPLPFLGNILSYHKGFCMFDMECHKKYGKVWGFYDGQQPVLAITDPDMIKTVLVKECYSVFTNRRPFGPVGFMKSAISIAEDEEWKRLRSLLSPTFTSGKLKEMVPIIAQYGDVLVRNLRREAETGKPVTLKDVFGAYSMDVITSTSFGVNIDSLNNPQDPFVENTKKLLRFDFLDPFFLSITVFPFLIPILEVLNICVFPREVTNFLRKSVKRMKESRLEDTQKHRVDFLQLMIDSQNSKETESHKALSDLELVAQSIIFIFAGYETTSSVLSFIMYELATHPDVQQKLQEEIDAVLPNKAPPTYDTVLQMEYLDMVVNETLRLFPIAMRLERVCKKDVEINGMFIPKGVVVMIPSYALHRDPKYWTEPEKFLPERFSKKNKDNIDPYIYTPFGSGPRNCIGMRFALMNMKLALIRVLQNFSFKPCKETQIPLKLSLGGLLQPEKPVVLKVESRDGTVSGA

CYP 2E1 = CYP 2E1 (Homo sapiens, UniProt P05181); assay: CYP inhibition 2E1; assay type: in vitro ADME
Sequence of CYP 2E1 (P05181 whole entry): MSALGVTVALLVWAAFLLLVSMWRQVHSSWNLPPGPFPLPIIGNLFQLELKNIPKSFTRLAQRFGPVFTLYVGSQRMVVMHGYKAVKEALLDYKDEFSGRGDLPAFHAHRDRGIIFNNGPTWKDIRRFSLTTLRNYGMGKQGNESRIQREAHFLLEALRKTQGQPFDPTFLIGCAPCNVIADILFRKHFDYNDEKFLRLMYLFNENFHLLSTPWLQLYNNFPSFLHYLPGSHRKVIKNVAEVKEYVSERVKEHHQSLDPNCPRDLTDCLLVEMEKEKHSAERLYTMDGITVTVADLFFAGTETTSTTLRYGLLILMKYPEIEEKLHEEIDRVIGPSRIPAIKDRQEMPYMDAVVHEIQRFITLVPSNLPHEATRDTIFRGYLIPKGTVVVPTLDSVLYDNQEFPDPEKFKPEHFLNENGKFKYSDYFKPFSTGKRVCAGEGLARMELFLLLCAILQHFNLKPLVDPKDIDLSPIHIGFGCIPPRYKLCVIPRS

SA13412 = assay: Synovial sarcoma patient derived xenograft (PDX) model (SA13412), tumor volume; assay type: in vivo, mice; details: 40 mg/kg orally once a day, 20 days of treatment
Experimental: The x-axis is days after start of treatment measured in days and the y-axis is tumor volume measured in mm^3. The mice were dosed with 40 mg/kg of Compound 172 orally once a day. […] The x axis is treatment measured in days and the y axis is mean tumor volume+SEM measured in cubic millimeters (mm^3). Compound 176 was dosed at 50 mg/kg once a day, 25 mg/kg twice a day, and 16.6 mg/kg three times a day.

BRD9 [1] = target: T1, BRD9 (Homo sapiens, UniProt Q9H8M2); assay: Western blot, in-vivo BRD9 degradation in ASKA-SS tumors; design: inoculated subcutaneously into BALB/c nude mice at the right flank for tumor development; from tissue; host or cells: Yamato-SS xenograft tumours in BALB/c nude mice; species or system BALB/c nude mice; details: single dose 10 or 75 mg/kg PO, FIG. 13
T1 sequence (Q9H8M2 1-597): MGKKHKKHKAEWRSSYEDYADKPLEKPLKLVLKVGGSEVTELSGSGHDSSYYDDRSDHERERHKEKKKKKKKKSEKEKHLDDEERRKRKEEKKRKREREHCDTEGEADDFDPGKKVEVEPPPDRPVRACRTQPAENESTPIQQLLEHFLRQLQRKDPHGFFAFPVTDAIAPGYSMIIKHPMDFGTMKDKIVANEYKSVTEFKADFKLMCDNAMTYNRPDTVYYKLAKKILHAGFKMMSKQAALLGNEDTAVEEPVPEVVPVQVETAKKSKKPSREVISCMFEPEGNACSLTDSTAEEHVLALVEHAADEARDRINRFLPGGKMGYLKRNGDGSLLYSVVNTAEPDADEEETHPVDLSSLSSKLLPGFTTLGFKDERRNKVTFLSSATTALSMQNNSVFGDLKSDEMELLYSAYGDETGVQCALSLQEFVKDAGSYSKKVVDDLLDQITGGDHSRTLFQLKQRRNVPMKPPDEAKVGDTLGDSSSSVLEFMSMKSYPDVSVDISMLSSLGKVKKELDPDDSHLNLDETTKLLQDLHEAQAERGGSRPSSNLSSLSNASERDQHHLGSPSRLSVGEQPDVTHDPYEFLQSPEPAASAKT
Experimental: ASKA-SS cells were maintained in vitro until exponential growth phase and inoculated subcutaneously into BALB/c nude mice at the right flank for tumor development. Mice were treated with single dose of Compound 172 at 10 or 75 mg/kg PO. Tumor were collected at indicated time points and snap frozen until lysis. Tumors were ground and lysed in RIPA Buffer containing 2× protease/phosphatase inhibitor using a freeze grinder at 50 Hz for 5 minutes. Protein concentrations were determined by Pierce™ BCA Protein Assay Kit. Samples were diluted to appropriate concentrations and run in a western blot.

[2] = system: BAF wildtype synovial sarcoma cells (SW982); assay: Confluence (growth) over time in SW982 cells; assay type: cell-based, human; details: various concentrations, FIG. 17
[3] = system: Synovial Sarcoma PDX model (SA13412); assay: Tumor volume in the Synovial Sarcoma PDX model (SA13412); assay type: in vivo; details: various concentrations, FIG. 23
BRD9 [4] = target: T1, BRD9; assay: Western blot of endogenous BRD9 degradation in A204, HS-SY-II, SW982 and Yamato SS cells; assay type: cell-based; design: endogenous in cells; host or cells: Yamato-SS (human synovial sarcoma); details: SW982, Yamato SS cells, 6 hours, FIG. 15
Experimental: The top left represents the malignant human rhabdoid tumor (A204), top right represents the human synovial sarcoma (HS-SY-II), the bottom left represents human soft tissue sarcoma (SW982, BAF wildtype) and the bottom right represents synovial sarcoma (Yamato SS), all via western blot.
Cells were plated at 500,000 cells/well in a 6-well plate and allowed to adhere for 16 hours. Each cell line was treated with Compound 176 serially diluted in DMSO for 6 hours. Cell pellets were collected, lysed with RIPA lysis buffer in the presence of protease inhibitors, and run on a 4-12% acrylamide gel for 45 minutes at 150V. Proteins were transferred to a nitrocellulose membrane and incubated with antibodies against BRD9 (1:1000; Cell Signaling Technology, #71232) or Vinculin (1:10,000; EMD, 05-386) overnight with agitation at 4° C. Blots were thrice washed with tris-buffered saline+0.05% tween-20 and incubated with host-directed fluorescently-conjugated antibodies for 1 hour at room temperature. Blots were thrice washed and imaged on a LiCor Odyssey CLx.

Sequence of IKZF1 (Q13422 whole entry, species assumed): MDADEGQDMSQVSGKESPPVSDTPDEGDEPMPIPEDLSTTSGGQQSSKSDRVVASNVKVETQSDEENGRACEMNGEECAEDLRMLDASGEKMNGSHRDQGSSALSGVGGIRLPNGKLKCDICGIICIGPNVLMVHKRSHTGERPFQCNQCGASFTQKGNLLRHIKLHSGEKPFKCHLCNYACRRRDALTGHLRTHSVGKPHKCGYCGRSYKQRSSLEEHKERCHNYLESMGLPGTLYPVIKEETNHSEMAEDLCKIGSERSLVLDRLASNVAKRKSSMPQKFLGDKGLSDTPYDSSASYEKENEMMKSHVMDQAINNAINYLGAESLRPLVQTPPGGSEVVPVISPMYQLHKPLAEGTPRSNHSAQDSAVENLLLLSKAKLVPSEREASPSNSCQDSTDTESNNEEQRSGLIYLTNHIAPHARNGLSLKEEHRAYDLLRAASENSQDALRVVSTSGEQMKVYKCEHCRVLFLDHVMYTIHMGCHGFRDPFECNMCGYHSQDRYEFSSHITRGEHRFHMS
Sequence of E3 (Q96SW2 whole entry): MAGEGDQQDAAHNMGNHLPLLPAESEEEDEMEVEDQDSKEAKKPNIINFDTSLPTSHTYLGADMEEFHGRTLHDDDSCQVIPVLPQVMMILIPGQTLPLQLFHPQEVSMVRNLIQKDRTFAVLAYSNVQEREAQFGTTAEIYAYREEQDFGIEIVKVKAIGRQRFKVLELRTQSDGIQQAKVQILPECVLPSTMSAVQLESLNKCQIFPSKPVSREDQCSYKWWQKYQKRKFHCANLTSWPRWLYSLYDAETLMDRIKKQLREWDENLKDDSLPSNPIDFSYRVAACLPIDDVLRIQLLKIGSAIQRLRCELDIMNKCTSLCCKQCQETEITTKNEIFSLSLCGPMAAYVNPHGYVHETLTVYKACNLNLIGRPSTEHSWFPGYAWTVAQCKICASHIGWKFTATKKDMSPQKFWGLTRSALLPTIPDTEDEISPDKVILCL

| SMILES | Kd (E3) [µM] | DC50 (IKZF1) [µM] | DC50 (GSPT1) [µM] | IC50 (CYP 1A2) [µM] | IC50 (CYP 2C19) [µM] | IC50 (CYP 3A4) [µM] | IC50 (CYP 2E1) [µM] | tumor volume, PDX model (SA13412) (SA13412) | in-vivo BRD9 degradation, western blot (BRD9 [1]) | confluence as a percentage of control over time [2] | mean tumor volume+SEM [3] | degradation of alpha BRD9, western blot (BRD9 [4]) |
| --- | --- | --- | --- | --- | --- | --- | --- | --- | --- | --- | --- | --- |
| COc1cc(-c2cn(C)c(=O)c(C)c2C)cc(OC)c1CN1CCC(N2CCN(c3ccc(NC4CCC(=O)NC4=O)cc3F)CC2)C(F)(F)C1 (stereo not drawn) [Compound 172, 3-[4-[4-[1-[[2,6-dimethoxy-4-(1,4,5-trimethyl-6-oxo-3-pyridyl)phenyl]methyl]-3,3-difluoro-4-piperidyl]piperazin-1-yl]-3-fluoro-anilino]piperidine-2,6-dione] | 0.95 | > 9.99 | > 9.99 | 30 | 30 | 18.2 | 30 | no appreciable tumor growth | dose dependent in-vivo BRD9 degradation |  |  |  |
| COc1cc(-c2cn(C)c(=O)c(C)c2C)cc(OC)c1CN1CCC(N2CCN(c3ccc(NC4CCC(=O)NC4=O)cc3F)CC2)C(F)(F)C1 (single isomer, unassigned) [Compound 176, 3-[4-[4-[1-[[2,6-dimethoxy-4-(1,4,5-trimethyl-6-oxo-3-pyridyl)phenyl]methyl]-3,3-difluoro-4-piperidyl]piperazin-1-yl]-3-fluoro-anilino]piperidine-2,6-dione] |  |  |  |  |  |  |  |  |  | lack of growth inhibition | efficacy | dose dependent degradation of alpha BRD9 |
